From patent publication US20240050431A1, “NEUROENDOCRINE DIFFERENTIATION IN IMIPRIDONE CANCER TREATMENT” (BROWN UNIVERSITY, priority 2022, published 2024) come the findings set out here.

Molecules are shown by their SMILES.

In one data set the test system is LNCaP. The data set can be described thus: CellTiter-Glo (CTG) viability assay, LNCaP. Type of data set: cell-based. As to conditions: Homo sapiens, 72 h.
A further data set has as its system 22RV1. The data set is described as follows: Protein expression of TRAIL pathway proteins, 22RV1. The class given is cell-based. As to conditions: 22RV1 treated with ONC201 at IC50; 12, 24 and 48 hours.
The subject of a further data set is PC3. The data set can be described thus: CellTiter-Glo (CTG) viability assay, PC3. The class given is cell-based. The settings on record: Homo sapiens, PC-3, 72 h.
Data set [1] concerns tumor cell lines (n=6) from prostate and small cell lung cancer tissues. The data set can be described thus: CellTiter-Glo (CTG) viability assay, panel of tumor cell lines. The settings on record: 6 PC and SCLC cell lines; varying drug concentrations, 72 hours.
Data set [2] relates to DU145. The data set can be described thus: Protein expression of TRAIL pathway proteins, DU145. The class given is cell-based. The settings on record: DU145 treated with ONC201 at IC50; 12, 24 and 48 hours. From the text: FIGS. 2A-2C provide images showing NED marker expression in PC and SCLC.
The subject of data set [3] is DU145. The data set is described as follows: CellTiter-Glo (CTG) viability assay, DU145. The class given is cell-based. As to conditions: Homo sapiens, DU-145, 72 h.

In the case of `Cc1ccccc1CN1C(=O)C2=C(CCN(Cc3ccccc3)C2)N2CCN=C12` [ONC201], the IC50 in the data set on LNCaP turned out to be 1330 nM; in the data set on PC3, 3.02 µM; with DU145 [3], 3.11 µM. In addition, the ATF4 protein expression result with 22RV1 and with DU145 [2] was “upregulation of ATF4 ISR pathway” in each case. Moreover, the CLpX protein expression result in the data set on 22RV1 and in the data set on DU145 [2] was “decreased CLpX expression” each time. For the same compound, in data set [1], the “Sensitivity and cytotoxicity (viability)” value was “shows sensitivity and cytotoxicity to tumor cell lines”.
